This is an account of results in patent publication US9827228B2, “Opioid receptor modulators and use thereof” (priority 2015, dated 2017).

For this experiment, the target named is T1, hMOR (Homo sapiens, UniProt P35372).
T1 construct: host or cells: CHO-K1
Kind of experiment: cell-based. The following applies: for AUC: AUC of [Ca2+]i fluorescence. The experiment is classed as cell-based. The method, then:
Chinese hamster ovary (CHO)-K1 cells expressing hMOR and Gα15 (CHO-K1/MOR/Gα15) were cultured in F12 medium (GIBCO) supplemented with 10 μg/mL Hygromycin B (Invivogen), 20 μg/mL Zeocin (Invivogen) and P/S/F (100 units/mL penicillin, 100 μg/mL streptomycin, 10% fetal bovine serum). The cultures were incubated at 37° C. in a humidified 5% CO2 incubator.
One day prior to running the assay, CORNING® black 96-well assay plates having a clear flat bottom were coated with a 0.1 mg/mL Poly-L-Lysine solution. CHO-K1/MOR/Gα15 cells were suspended in F12 medium and plated at a density of about 8×10^4 cells/well in 200 μL medium. Cells were incubated under a humidified atmosphere of 10% CO2 at 37° C. overnight to reach an 80-90% confluent cell monolayer before the assay. On the day of the assay, 150 μL medium was removed from each well of the plates. To each well were added FLIPR® calcium assay reagents (Molecular Devices Corporation, Sunnyvale, Calif., USA; 50 μL) dissolved in 1× assay buffer (HBSS: KCl 5 mM, KH2PO4 0.3 mM, NaCl 138 mM, NaHCO3 4 mM, Na2HPO4 0.3 mM, d-glucose 5.6 mM, with additional 20 mM HEPES and […], pH 7.4) and 2.5 mM probenecid. After incubation at 37° C. for 1 hour, a test compound, alone or together with naloxone (a MOR antagonist), was also added to each well. Using a FlexStationlll instrument (Molecular Devices Corp.), increments of the [Ca^2+]i fluorescence after robotic injection of the cell suspension were monitored at 1.52 s intervals using the excitation wavelength of 485 nm and the emission wavelength of 525 nm. The [Ca^2+]i fluorescence was measured up to 90 s after the injection. The fluorescence intensity from 6 to 12 wells of cells were averaged and the relative amount of [Ca^2+]i release was determined by integrating the AUC of the [Ca^2+]i fluorescence averages.
A CHO-K1 cell line expressing MOR and Gα15 (GenScript) was used to set up a sensitive high-throughput screen (HTS) system. […] The HTS was performed in the absence or presence of naloxone (an opioid antagonist; 20 nM), to identify AAMs.

[1] abbreviates: combined with naloxone, CHO-K1/MOR/Gα15 cells.
The mark [2] stands for this setting: combined with naloxone, CHO-K1/MOR/Gα15 cells, read-out: EC50.
The mark [3] stands for this setting: EC50, combined with naloxone, CHO-K1/MOR/Gα15 cells.

Like-named read-outs stand apart in the source and are kept apart here.

T1 sequence (P35372 whole entry): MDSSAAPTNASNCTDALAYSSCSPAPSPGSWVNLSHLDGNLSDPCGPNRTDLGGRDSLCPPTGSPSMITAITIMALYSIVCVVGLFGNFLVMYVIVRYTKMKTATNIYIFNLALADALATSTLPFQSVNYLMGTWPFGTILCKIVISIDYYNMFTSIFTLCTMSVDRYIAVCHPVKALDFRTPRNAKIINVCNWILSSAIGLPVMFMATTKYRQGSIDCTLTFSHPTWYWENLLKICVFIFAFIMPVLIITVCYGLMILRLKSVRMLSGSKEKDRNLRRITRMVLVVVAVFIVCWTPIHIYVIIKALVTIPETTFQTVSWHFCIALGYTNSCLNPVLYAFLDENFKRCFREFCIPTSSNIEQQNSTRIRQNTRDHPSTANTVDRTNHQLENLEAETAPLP

By EC50 is commonly meant the concentration giving half of the maximal effect. With `Cc1nc(C)c(-c2csc(Nc3cc(F)ccc3C)n2)s1` [Compound 10, N-(5-Fluoro-2-methylphenyl)-2′,4′-dimethyl-4,5′-bi-1,3-thiazol-2-amine], the AUC entry under setting [1] is recorded as “− (−: <5000)”. In addition, under setting [2], the EC50 is above 10 µM.

For the molecule `Cc1ccc(Nc2nc(-c3sc(C)nc3C)cs2)c(C)c1` [Compound 29, N-(2,4-Dimethylphenyl)-2′,4′-dimethyl-4,5′-bi-1,3-thiazol-2-amine], the AUC result under setting [1] is “+ (+: >5000)”. The EC50 (EC50, combined with naloxone) is below 10 µM and the 50% effective concentration (EC50) under setting [3] was in the range of 3 to 10 µM.

Turning to `Cc1nc(C)c(-c2csc(Nc3ccccc3-n3cccc3)n2)s1` [Compound 72, 2′,4′-Dimethyl-N-[2-(1H-pyrrol-1-yl)phenyl]-4,5′-bi-1,3-thiazol-2-amine], the AUC entry under setting [1] is “− (−: <5000)”. Moreover, the EC50 under setting [2] was above 10 µM.

Turning to `CCc1cccc(C)c1Nc1nc(-c2sc(C)nc2C)cs1` [Compound 47, N-(2-Ethyl-6-methylphenyl)-2′,4′-dimethyl-4,5′-bi-1,3-thiazol-2-amine], the AUC entry under setting [1] was “+ (+: >5000)”. In addition, the concentration giving a half-maximal response (EC50) runs as follows: (EC50, combined with naloxone) below 10 µM; under setting [3], 1 to 3 µM.

On to `CCc1cc(Br)ccc1Nc1nc(-c2sc(C)nc2C)cs1` [Compound 49, N-(4-Bromo-2-ethylphenyl)-2′,4′-dimethyl-4,5′-bi-1,3-thiazol-2-amine], for which, under setting [1], the AUC entry is “− (−: <5000)”. For the same molecule, the EC50 was below 10 µM (EC50, combined with naloxone) and 3 to 10 µM under setting [3].

For the molecule `Cc1nc(C)c(-c2csc(Nc3ccccc3N3CCCCC3)n2)s1` [Compound 68, 2′,4′-Dimethyl-N-[2-(1-piperidinyl)phenyl]-4,5′-bi-1,3-thiazol-2-amine], the AUC entry under setting [1] was “− (−: <5000)”. Besides, under setting [2], the EC50 is above 10 µM.

Turning to `Cc1csc(Nc2nc(-c3sc(C)nc3C)cs2)n1` [Compound 114, 2′,4′-Dimethyl-N-(4-methyl-1,3-thiazol-2-yl)-4,5′-bi-1,3-thiazol-2-amine], the AUC entry under setting [1] is “− (−: <5000)”. For the same molecule, the EC50 under setting [2] was above 10 µM.

For `Cc1nc(C)c(-c2csc(Nc3ccccc3Cl)n2)s1` [Compound 8, N-(2-Chlorophenyl)-2′,4′-dimethyl-4,5′-bi-1,3-thiazol-2-amine], the AUC entry under setting [1] is listed as “− (−: <5000)”. Further, the EC50 under setting [2] is above 10 µM.

Consider `Cc1cc(C)cc(Nc2nc(-c3sc(C)nc3C)cs2)c1` [Compound 39, N-(3,5-Dimethylphenyl)-2′,4′-dimethyl-4,5′-bi-1,3-thiazol-2-amine], for which, under setting [1], the AUC entry is given as “− (−: <5000)”. Besides, the EC50 under setting [2] was above 10 µM.

Take `Cc1nc(C)c(-c2csc(Nc3c(C)cccc3C)n2)s1` [Compound 41, N-(2,6-Dimethylphenyl)-2′,4′-dimethyl-4,5′-bi-1,3-thiazol-2-amine]: the AUC result under setting [1] is given as “− (−: <5000)”. Moreover, under setting [2], the EC50 is above 10 µM.

`Cc1ccc(C)c(Nc2nc(-c3sc(C)nc3C)cs2)c1` [Compound 25, N-(2,5-Dimethylphenyl)-2′,4′-dimethyl-4,5′-bi-1,3-thiazol-2-amine]: the AUC result under setting [1] is “− (−: <5000)”. Moreover, the EC50 under setting [2] is above 10 µM.

For `CCc1ccccc1Nc1nc(-c2sc(C)nc2C)c(C)s1` [Compound 98, N-(2-Ethylphenyl)-2′,4′,5-trimethyl-4,5′-bi-1,3-thiazol-2-amine], under setting [1], the AUC result was “− (−: <5000)”. The EC50 under setting [2] was above 10 µM.

Turning to `Cc1cc(C)c(Nc2nc(-c3oc(C)nc3C)cs2)c(C)c1` [Compound 106, 4-(2,4-Dimethyl-1,3-oxazol-5-yl)-N-(2,4,6-trimethylphenyl)-1,3-thiazol-2-amine], under setting [1], the AUC entry is listed as “+ (+: >5000)”. Besides, the EC50 reads like this: (EC50, combined with naloxone) below 10 µM; under setting [3], 3 to 10 µM.

In the case of `CCc1ccccc1Nc1ncc(-c2sc(C)nc2C)o1` [Compound 107, 5-(2,4-Dimethyl-1,3-thiazol-5-yl)-N-(2-ethylphenyl)-1,3-oxazol-2-amine], the AUC result under setting [1] was “+ (+: >5000)”. Under setting [2], the EC50 is above 10 µM.

As to `Cc1nc(C)c(-c2csc(Nc3ccccc3CO)n2)s1` [Compound 62, {2-[(2′,4′-Dimethyl-4,5′-bi-1,3-thiazol-2-yl)amino]phenyl}methanol], the AUC entry under setting [1] was “− (−: <5000)”. For the same molecule, under setting [2], the EC50 was above 10 µM.

Regarding `Cc1nc(C)c(-c2csc(Nc3ccc(Br)cc3C)n2)s1` [Compound 42, N-(4-Bromo-2-methylphenyl)-2′,4′-dimethyl-4,5′-bi-1,3-thiazol-2-amine], under setting [1], the AUC entry is “− (−: <5000)”. In addition, the EC50 under setting [2] is above 10 µM.

For the molecule `Cc1cc(C)c(Nc2nc(-c3sc(C)nc3C)cs2)c(C)c1` [Compound 17, 2′,4′-Dimethyl-N-(2,4,6-trimethylphenyl)-4,5′-bi-1,3-thiazol-2-amine], the AUC entry under setting [1] was “+ (+: >5000)”. Also, the 50% effective concentration (EC50) runs as follows: (EC50, combined with naloxone) below 10 µM; under setting [3], 3 to 10 µM.

Regarding `COc1ccc(C)c(Nc2nc(-c3sc(C)nc3C)cs2)c1` [Compound 12, N-(5-Methoxy-2-methylphenyl)-2′,4′-dimethyl-4,5′-bi-1,3-thiazol-2-amine], the AUC result under setting [1] is “− (−: <5000)”. For the same molecule, the EC50 under setting [2] was above 10 µM.

On to `CC(=O)c1ccc(Nc2nc(-c3sc(C)nc3C)cs2)cc1` [Compound 44, 1-{4-[(2′,4′-Dimethyl-4,5′-bi-1,3-thiazol-2-yl)amino]phenyl}ethanone], for which, under setting [1], the AUC entry was “− (−: <5000)”. Moreover, the EC50 under setting [3] was above 10 µM.

Regarding `Cc1nc(C)c(-c2csc(Nc3ccc(Br)cc3C(F)(F)F)n2)s1` [Compound 43, N-[4-Bromo-2-(trifluoromethyl)phenyl]-2′,4′-dimethyl-4,5′-bi-1,3-thiazol-2-amine], under setting [1], the AUC entry is “+ (+: >5000)”. Moreover, the EC50 under setting [2] is above 10 µM.

Turning to `Cc1nc(C)c(-c2csc(Nc3nc4ccccc4s3)n2)s1` [Compound 117, N-(1,3-Benzothiazol-2-yl)-2′,4′-dimethyl-4,5′-bi-1,3-thiazol-2-amine], the AUC entry under setting [1] is reported as “− (−: <5000)”. Also, the concentration giving a half-maximal response (EC50) under setting [2] was above 10 µM.

Turning to `Cc1nc(C)c(-c2csc(Nc3c(C)cccc3F)n2)s1` [Compound 33, N-(2-Fluoro-6-methylphenyl)-2′,4′-dimethyl-4,5′-bi-1,3-thiazol-2-amine], under setting [1], the AUC entry is recorded as “+ (+: >5000)”. In addition, the EC50 was below 10 µM (EC50, combined with naloxone) and 3 to 10 µM under setting [3].

On to `Cc1nc(C)c(-c2csc(Nc3ccccc3N3CCOCC3)n2)s1` [Compound 70, 2′,4′-Dimethyl-N-[2-(4-morpholinyl)phenyl]-4,5′-bi-1,3-thiazol-2-amine], for which, under setting [1], the AUC entry is recorded as “− (−: <5000)”. Besides, the EC50 was below 10 µM (EC50, combined with naloxone) and 3 to 10 µM under setting [3].

For `CCc1ccccc1Nc1nc(-c2cccs2)cs1` [Compound 124, N-(2-Ethylphenyl)-4-(2-thiophenyl)-1,3-thiazol-2-amine], the AUC entry under setting [1] is given as “− (−: <5000)”. Further, under setting [2], the EC50 was above 10 µM.

On to `Cc1nc(C)c(-c2csc(Nc3cc(Cl)ccc3C)n2)s1` [Compound 15, N-(5-Chloro-2-methylphenyl)-2′,4′-dimethyl-4,5′-bi-1,3-thiazol-2-amine], for which, under setting [1], the AUC result was “− (−: <5000)”. Besides, the EC50 under setting [2] is above 10 µM.

`COc1cc(C)c(Nc2nc(-c3sc(C)nc3C)cs2)cc1OC` [Compound 27, N-(4,5-Dimethoxy-2-methylphenyl)-2′,4′-dimethyl-4,5′-bi-1,3-thiazol-2-amine]: the AUC result under setting [1] was “− (−: <5000)”. The half-maximal effective concentration (EC50) under setting [2] is above 10 µM.

As for `Cc1nc(C)c(-c2csc(Nc3cc(Br)ccc3C)n2)s1` [Compound 19, N-(5-Bromo-2-methylphenyl)-2′,4′-dimethyl-4,5′-bi-1,3-thiazol-2-amine], under setting [1], the AUC entry is “− (−: <5000)”. Further, the EC50 under setting [2] was above 10 µM.

On to `CCc1ccccc1Nc1ncc(-c2oc(C)nc2C)o1` [Compound 109, 5-(2,4-Dimethyl-1,3-oxazol-5-yl)-N-(2-ethylphenyl)-1,3-oxazol-2-amine], for which, under setting [1], the AUC result was “− (−: <5000)”. Also, the EC50 under setting [2] was above 10 µM.

Consider `Cc1nc(C)c(-c2csc(Nc3ccccc3O)n2)s1` [Compound 65, 2-[(2′,4′-Dimethyl-4,5′-bi-1,3-thiazol-2-yl)amino]phenol], for which the AUC result under setting [1] is “+ (+: >5000)”. Besides, under setting [2], the EC50 was above 10 µM.

Consider `Cc1ccc(Nc2nc(-c3sc(-c4ccccc4)nc3C)cs2)c(C)c1` [Compound 93, N-(2,4-Dimethylphenyl)-4′-methyl-2′-phenyl-4,5′-bi-1,3-thiazol-2-amine], for which, under setting [1], the AUC result is on record as “− (−: <5000)”. The EC50 under setting [2] was above 10 µM.

On to `Cc1nc(C)c(-c2csc(Nc3ccc(O)cc3C)n2)s1` [Compound 60, 4-[(2′,4′-Dimethyl-4,5′-bi-1,3-thiazol-2-yl)amino]-3-methylphenol], for which the AUC entry under setting [1] is recorded as “− (−: <5000)”. For the same molecule, the 50% effective concentration (EC50) under setting [2] was above 10 µM.
